Experimental data taken from US20170368082A1, “FORMULATIONS OF BRINCIDOFOVIR” (priority 2016, published 2017).

What was measured:
[1] = Drug product vial and stopper compatibility; type: physicochemical
Protocol: Formulations of the disclosure were evaluated for […]. The testing formulation (5 mL, 10 mg/mL brincidofovir, 200 mM sodium phosphate, pH=8.0) was dispensed into a set of Afton sterilized, Ready-To-Fill® vials. The vials were stoppered with West NovaPure® stoppers and crimped with Afton Ready-To-Fill® sterilized seals, and stored for 6 hours at ambient conditions in upright and inverted orientations. Samples of the filling solution were collected before filling and after 6 hours of storage under the respective condition. The collected samples were assessed for their appearance, pH, and c(BCV). […] No additional impurity was introduced following contact.
The vials used for testing were clear, 20 mL, Class A borosilicate glass serum vials, and the stoppers were 20 mm Novapure® stoppers, with FluroTec® coating.

[2] = Clinical infusion bag compatibility; type: physicochemical
Protocol: A standard mini-infusion bag (100 mL) was subjected to material compatibility testing with the following formulation:
The developed brincidofovir formulation (15 mg/mL brincidofovir, 200 mM sodium phosphate, pH=8.0) was diluted to c(BCV)=0.1 and c(BCV)=1.0 mg/mL by injection into the infusion bags. The infusion bags were then stored at ambient conditions, and samples were collected from the infusion bags at the time points (t0, t1h, t8h, and t24h) for assessments of appearance, pH, and c(BCV). As a control, the 5% dextrose solution was removed from a separate infusion bag, and external dilutions (standard laboratory glassware) of the testing formulation with the 5% dextrose solution were performed applying identical dilution factors. Samples of the external diluted solution were likewise analyzed.
Solutions of Formulation 3a, in a 5% dextrose injection vehicle, were prepared at two different formulation strengths (1.0 mg/mL and 0.1 mg/mL brincidofovir), and stored in the infusion bag at ambient conditions. Samples form the infusion bags and from an externally diluted standard were evaluated for appearance, pH and brincidofovir recovery (determined via HPLC) at the beginning of the study (t0), after 8 h (t8h), and after 24 h (t24h).

[3] = Plasma BCV PK following single dose oral tablet administration (Table 105); type: in vivo; conditions: human; for AUC(0-inf) / Cmax: plasma, po
[4] = PBMC PK of CDV-PP following IV and oral suspension BCV; type: in vivo, human; conditions: BCV 50 mg, 2- or 4-h IV infusion
Protocol: Two single dose BCV studies in healthy subjects contributed data for this analysis. The first study was a 2-period crossover bioequivalence study that enrolled 24 subjects who received two formulations of BCV oral suspension 100 mg fasted, one in each period. Data from 12 subjects who had PBMCs collected in Period 1 were included in this analysis; these subjects were 100% female, 31-59 years, and 58-88 kg. The second study, outlined above, enrolled 40 subjects who received IV BCV or placebo. Data from 18 subjects who received BCV 50 mg as either a 2-h or 4-h IV infusion were included in this analysis; these subjects were 100% male, 18-46 years, 64-106 kg. Serial PBMC samples were collected over 14 days and assayed by HPLC-MS-MS. PBMC CDV-PP PK parameters were determined by non-compartmental analysis.

[5] = c(BCV) 0.1 mg/mL in infusion bag, t0
[6] = c(BCV) 0.1 mg/mL in infusion bag, t1 h
[7] = c(BCV) 0.1 mg/mL in infusion bag, t8 h
[8] = c(BCV) 0.1 mg/mL in infusion bag, t24 h
[9] = c(BCV) 0.1 mg/mL, external dilution
[10] = c(BCV) 1.0 mg/mL in infusion bag, t0
[11] = c(BCV) 1.0 mg/mL in infusion bag, t1 h
[12] = c(BCV) 1.0 mg/mL in infusion bag, t8 h
[13] = c(BCV) 1.0 mg/mL in infusion bag, t24 h
[14] = c(BCV) 1.0 mg/mL, external dilution
[15] = 100 mg, 100 mg Oral Tablet, N = 52, geometric mean
[16] = 200 mg, 200 mg Oral Tablet, N = 15, geometric mean
[17] = 200 mg, 200 mg Oral Tablet, N = 63, geometric mean
[18] = 350 mg, 350 mg Oral Tablet, N = 70, geometric mean

## CCCCCCCCCCCCCCCCOCCCOP(=O)(O)CO[C@H](CO)Cn1ccc(N)nc1=O [Brincidofovir]
[1]; Inverted, 6 h
  Appearance: Clear, colorless
  Measured pH: 8.0
  Observed c(BCV): 9.4 mg/mL
[1]; Pre filling
  Appearance: Clear, colorless
  Measured pH: 8.0
  Observed c(BCV): 9.5 mg/mL
[1]; Upright, 6 h
  Appearance: Clear, colorless
  Measured pH: 8.0
  Observed c(BCV): 9.5 mg/mL
[2]; [5]
  Appearance: Clear,
  Measured pH: 7.9
  Observed c(BCV): 0.092 mg/mL
[2]; [6]
  Appearance: Clear,
  Measured pH: 7.9
  Observed c(BCV): 0.093 mg/mL
[2]; [7]
  Appearance: Clear,
  Measured pH: 7.9
  Observed c(BCV): 0.093 mg/mL
[2]; [8]
  Appearance: Clear,
  Measured pH: 7.9
  Observed c(BCV): 0.093 mg/mL
[2]; [9]
  Appearance: Clear,
  Measured pH: 7.9
  Observed c(BCV): 0.098 mg/mL
[2]; [10]
  Appearance: Clear,
  Measured pH: 8.2
  Observed c(BCV): 0.87 mg/mL
[2]; [11]
  Appearance: Clear,
  Measured pH: 8.2
  Observed c(BCV): 0.87 mg/mL
[2]; [12]
  Appearance: Clear,
  Measured pH: 8.2
  Observed c(BCV): 0.87 mg/mL
[2]; [13]
  Appearance: Clear,
  Measured pH: 8.1
  Observed c(BCV): 0.86 mg/mL
[2]; [14]
  Appearance: Clear,
  Measured pH: 8.2
  Observed c(BCV): 0.94 mg/mL
[3]; 100 mg Oral Tablet, N = 52, geometric mean
  half-life: 7.62 h
[3]; 200 mg Oral Tablet, N = 15, geometric mean
  half-life: 12 h
[3]; [15]
  AUC(0-inf): 1380 ng·h/mL
  Cmax: 258 ng/mL
[3]; [16]
  AUC(0-inf): 3310 ng·h/mL
  Cmax: 622 ng/mL
[3]; [17]
  AUC(0-inf): 3740 ng·h/mL
  Cmax: 802 ng/mL
[3]; [18]
  AUC(0-inf): 6940 ng·h/mL
  Cmax: 1480 ng/mL
[4]
  Intracellular CDV-PP exposure vs BCV 100 mg oral suspension: comparable
